“And” between values parts separate entries of the source, which are not always exact repeats. Equal entries are not always repeated.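 Interpolation was linear, between the two tested concentrations surrounding the appropriate level; five concentrations were tested over 48 hours in 96-well plates. Abbreviation: GI50, concentration required for 50% inhibition of growth. Definition used: TGI = concentration required for complete inhibition of growth.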

The first test concerns SR leukemia. In words: inhibition of tumour cell growth, NCI panel, 48 h.
On to `Cc1cc(C)cc(C(=O)Nc2cccc(-c3cn(-c4ccc(S(N)(=O)=O)cc4)nn3)c2)c1`, for which the GI50 is 1.83 µM and the TGI is above 10 µM.

The next test has as its system MOLT-4 leukemia. Kind of test: inhibition of tumour cell growth, NCI panel, 48 h.
Turning to `Cc1cc(C)cc(C(=O)Nc2cccc(-c3cn(-c4ccc(S(N)(=O)=O)cc4)nn3)c2)c1`, the GI50 is 5.58 µM and the TGI was above 10 µM.

The test system of a further test is K-562 leukemia. Kind of test: inhibition of tumour cell growth, NCI panel, 48 h.
For `Cc1cc(C)cc(C(=O)Nc2cccc(-c3cn(-c4ccc(S(N)(=O)=O)cc4)nn3)c2)c1`, the GI50 was 2.92 µM and the TGI was above 10 µM.

The subject of the next test is HCT-15 colon. In words: inhibition of tumour cell growth, NCI panel, 48 h.
With `Cc1cc(C)cc(C(=O)Nc2cccc(-c3cn(-c4ccc(S(N)(=O)=O)cc4)nn3)c2)c1`, the GI50 was above 10 µM and the TGI was above 10 µM.

In another test the test system is MDA-MB-468 breast. In words: inhibition of tumour cell growth, NCI panel, 48 h.
Turning to `O=C(Oc1ccc([N+](=O)[O-])cc1)N1CCC(C(O)(c2ccc3c(c2)OCO3)c2ccc3c(c2)OCO3)CC1`, the GI50 was above 100 µM and the TGI was above 100 µM.

Consider `CC/C(=C(\c1ccc(O)cc1)c1ccc(OCCNC)cc1)c1ccccc1`, for which the GI50 was 1.59 µM and 1.53 µM and 1.51 µM; the TGI is 3.2 µM and 2.98 µM and 3.21 µM.

For the compound `COc1cc(/C=C2\C(=O)N(c3c(Cl)cccc3Cl)c3ccccc32)cc(OC)c1O`, the GI50 was 2.27 µM and the TGI is 12.9 µM.

Consider `CCn1c2ccccc2c2cc(-n3nncc3-c3ccccc3)ccc21`, for which the GI50 is 0.437 µM and the TGI is above 100 µM.

In the case of `COCCOC(C)C(/C=N/NC(N)=S)=N/NC(N)=S` (configuration not stated), the GI50 is 0.0217 µM and the TGI was above 100 µM.

As for `CCCn1cnc2c(c1=N)C(c1ccc(OC)cc1)c1sc3c(CC)cccc3c1O2` (configuration not stated), the GI50 was 0.422 µM and the TGI was found to be 4.27 µM.

For the compound `C#C[C@]1(O)CC[C@H]2[C@@H]3CC=C4c5nc(Nc6ccc(OC)cc6OC)sc5CC[C@]4(C)[C@H]3CC[C@@]21C`, the GI50 is 1.84 µM and the TGI was determined as 4.08 µM.

On to `Cc1cc(NC(=O)CCc2ccc(N3C(N)=NC(N)=NC3(C)C)cc2)ccc1S(=O)(=O)F`, for which the GI50 was 0.736 µM and the TGI was above 82.9 µM.

On to `O=C1C(Nc2ccccn2)=C(I)C(=O)c2ncccc21`, for which the GI50 was 1.22 µM and the TGI worked out at 2.77 µM.

Consider `Nc1cc(C(F)F)c(-c2nc(N3[C@@H]4CC[C@H]3COC4)nc(N3[C@@H]4CC[C@H]3COC4)n2)cn1`, for which the GI50 was 0.249 µM and the TGI was 3.03 µM.

`O=[N+]([O-])c1ccc2nc(N/N=C/c3ccc(O)cc3)sc2c1`: the GI50 is 3.91 µM and the TGI stood at 20.8 µM.

On to `NC(N)=NC(N)=NCCc1ccccc1`, for which the GI50 was 6.58 µM and 15 µM; the TGI was 94.9 µM and > 100 µM.

On to `O=[N+]([O-])c1ccc(N(CCO)CCO)c2c1no[n+]2[O-]`, for which the GI50 is 0.625 µM and the TGI was 2.86 µM.

On to `COC(=O)c1c2c(c(C)[n+]([O-])c1C)C(=O)C(NCc1ccc(F)c(Cl)c1)=CC2=O`, for which the GI50 was 1.12 µM and the TGI turned out to be 3.04 µM.

Regarding `N#CC1=C(N)Oc2c(sc3c(F)cccc23)C1c1ccc([N+](=O)[O-])cc1` (configuration not stated), the GI50 is 0.0787 µM and the TGI is 0.902 µM.

Regarding `O=C1Nc2ccccc2SC1C1SC(=S)N(Cc2ccccc2)C1=O` (configuration not stated), the GI50 was 1.05 µM and the TGI amounted to 23.4 µM.

As to `O=C(N/N=C/c1cc2ccccc2c2ccccc12)c1cc(O)c(O)c(O)c1`, the GI50 is 2.46 µM and the TGI was 6.88 µM.

Take `CN(C)CCCC1(c2ccc(F)cc2)OCc2cc(-c3ccc4cc[nH]c4c3)ccc21` (configuration not stated): the GI50 is 1.75 µM and the TGI amounted to 3.44 µM.

Take `CCOC(=O)c1c(C)c2c(n1C)CSc1cc(S(=O)(=O)c3ccccc3)c(=O)[nH]c1-2`: the GI50 was 14.2 µM and the TGI is above 100 µM.

In the case of `O=S(=O)(Nc1ccc(Cl)c(C(F)(F)F)c1)c1ccc(-c2cnc(C3CC3)o2)cc1`, the GI50 is 0.144 µM and the TGI came to 3.1 µM.

Consider `CCN(C)S(=O)(=O)Nc1cccc(Nc2ncnc3cc(NC(=O)CCl)ccc23)c1Cl`, for which the GI50 was 2.34 µM and the TGI was found to be 6.7 µM.

Consider `CS(=O)(=O)c1ccc(C(F)(F)F)cc1NC(=O)Nc1cnc(Oc2ccc(-c3cc(Cl)cnc3N)cc2)nc1`, for which the GI50 is 2.02 µM and the TGI turned out to be 7 µM.

In the case of `O=C(NNc1nc2cc(F)ccc2n2c(CN3CC4(COC4)C3)ccc12)c1cnccn1`, the GI50 was 0.302 µM and the TGI is 1.24 µM.

`N#Cc1ccc(-n2cnc(NC(=O)[C@H]3CCN(C#N)C3)c2)cc1`: the GI50 is 0.337 µM and the TGI worked out at 2.45 µM.

As to `O=C(Nc1ccc(-n2cc(-c3ccncc3)c(-c3ccc(Cl)c(O)c3)n2)cc1)c1cc(Cl)cc(Cl)c1`, the GI50 is 6.07 µM and the TGI is above 100 µM.

Consider `C=CCSc1n[nH]c(-c2cccs2)n1`, for which the GI50 is above 100 µM and the TGI was above 100 µM.

Regarding `COc1cc2cc(C(=O)O)[nH]c2cc1OCc1ccccc1`, the GI50 was above 100 µM and the TGI is above 100 µM.

As for `C=CC(=O)Nc1cc2c(Nc3ccc(OCc4ccccn4)c(Cl)c3)ncnc2cc1OCCN1CCOCC1`, the GI50 was 0.0143 µM and the TGI worked out at 0.282 µM.

Turning to `COc1cc2c(cc1OC)C(Sc1ccc(F)cc1)c1c(nc(N)c(C#N)c1N)O2` (configuration not stated), the GI50 was 0.511 µM and the TGI turned out to be 1.84 µM.

For the compound `C[C@]12CC[C@@H]3c4ccc(O)cc4CC[C@H]3[C@@H]1CC[C@@H]2NS(=O)(=O)c1cccc(Br)c1`, the GI50 is 2.43 µM and the TGI turned out to be 11.5 µM.

Regarding `CCOC(=O)C(=Cc1ccc(Br)cc1)C(=O)OCC`, the GI50 was 1.67 µM and the TGI was 3.45 µM.

Consider `Cc1ccnc2c1NC(=O)c1cccnc1N2C1CC1`, for which the GI50 is above 100 µM and the TGI is above 100 µM.

As to `Cc1cc(N2CCN(C)CC2)nc(NC2CCCC(Nc3ccnc4cc(Cl)ccc34)C2)n1` (configuration not stated), the GI50 was 1.67 µM and the TGI was determined as 4.36 µM.

Turning to `Cc1ccc(NC2=C(Cl)C(=O)c3nc(C)ccc3C2=O)cc1`, the GI50 is 0.329 µM and the TGI worked out at 1.31 µM.

In the case of `N#Cc1cccc(Nc2nccc(-c3cnn4ncccc34)n2)c1`, the GI50 was 0.00804 µM and the TGI was 0.0293 µM.

As for `NC(=O)c1c(OCc2c(F)cc(Br)cc2F)nsc1NC(=O)NCCCCN1CCCC1`, the GI50 is 1.49 µM and the TGI worked out at 3.18 µM.

Regarding `Cc1oc2c(c1C(=O)c1ccccc1)C(=O)c1ccccc1C2=O`, the GI50 was 1.74 µM and the TGI stood at 3.26 µM.

Values taken from PubChem BioAssay (NCI).
